Like-named read-outs stand apart in the source and are kept apart here.
Columns and labels:
KARPAS-299 cells = assay: CellTiter-Glo cell viability, KARPAS-299; format: cell-based; conditions: 72 h; for GI50: read-out: Absolute GI50; for IC50: read-out: Absolute IC50
Experimental: (§1) The cell viability of 50 cancer cell lines was studied after treatment with Compound 121. Inhibition concentration values at 50% (IC50) were determined using CellTiter-Glo luminescent cell viability assay after incubation with different compound concentrations. GI50 values were determined according to the examples described above. Each cell line was treated with Compound 121, a standard chemotherapy drug as a reference control, and culture medium as a vehicle control.
(§2) All cells were cultured in media supplemented with 10-15% FBS at 37° C. in the presence of 5% CO2 and at 95% humidity. The culture medium was purchased from GIBCO or Sigma, USA. Cisplatin was chosen as the reference control and purchased from Hospira Australia Pty Ltd. The cell lines studied are presented in Table 5.
(§3) Cells were harvested during a logarithmic growth period and cell number count was determined using Count-star. Cell concentrations were adjusted to 4.44×10^4 cells/mL with respective culture medium. 90 μL of cell suspensions were added to two 96-well plates (plates A and B) with a final cell density of 4×10^3 cells/well.
(§4) 10 μL of culture medium was added to each well of plate A for TO reading. The plate was allowed to equilibrate at room temperature for approximately 30 min. 50 μL of CellTiter-Glo was added to each well and the contents were mixed for 5 min on an orbital shaker to induce cell lysis. The plate was allowed to incubate at room temperature for 20 min to stabilize luminescent signal.
(§5) 10 μM Compound 121 in media was serially diluted 3.16-fold to achieve 9 dose levels. Similarly, 100 μM reference control in media was serially diluted 3.16-fold to prepare reference control solutions. 10 μL drug solution and 10 μL of reference control was dispensed into each well in plate B.
(§6) Test plate B was incubated for 72 h in a humidified incubator at 37° C. in the presence of 5% CO2 and then subjected to CTG assay. The plate was allowed to equilibrate at room temperature for about 30 min. 50 μL of CellTiter-Glo was added to each well and the contents were mixed for 5 min on an orbital shaker to induce cell lysis. The plate was allowed to incubate at room temperature for 20 min to stabilize luminescent signal.
(§7) IC50 and GI50 values for each of the 50 cell lines are presented in Table 6 and were calculated based on the dose-response curves depicted in FIGS. 1-50. The dose-response curves were fitted using nonlinear regression model with a sigmoidal dose response. The formula for calculating survival rate was calculated by the formula:
(§8) Survival rate (%)=(LumTest article−LumMedium control)/(LumNone treated−LumMedium control)×100.

A2058 cells = assay: CellTiter-Glo cell viability, A2058; format: cell-based; conditions: 72 h; for GI50: read-out: Absolute GI50; for IC50: read-out: Absolute IC50
Experimental: as §1, §2, §3, §4, §5, §6, §7, §8

22Rv1 cells = assay: CellTiter-Glo cell viability, 22Rv1; format: cell-based; conditions: 72 h; for GI50: read-out: Absolute GI50; for IC50: read-out: Absolute IC50
Experimental: as §1, §2, §3, §4, §5, §6, §7, §8

HT-1376 cells = assay: CellTiter-Glo cell viability, HT-1376; format: cell-based; conditions: 72 h; for GI50: read-out: Absolute GI50; for IC50: read-out: Absolute IC50
Experimental: as §1, §2, §3, §4, §5, §6, §7, §8

Raji cells = assay: CellTiter-Glo cell viability, Raji; format: cell-based; conditions: 72 h; for GI50: read-out: Absolute GI50; for IC50: read-out: Absolute IC50
Experimental: as §1, §2, §3, §4, §5, §6, §7, §8

TJ905 cells = assay: CellTiter-Glo cell viability, TJ905; format: cell-based; conditions: 72 h; for GI50: read-out: Absolute GI50; for IC50: read-out: Absolute IC50
Experimental: as §1, §2, §3, §4, §5, §6, §7, §8

Molt-4 cells = assay: CellTiter-Glo cell viability, Molt-4; format: cell-based; conditions: 72 h; for GI50: read-out: Absolute GI50; for IC50: read-out: Absolute IC50
Experimental: as §1, §2, §3, §4, §5, §6, §7, §8

NCI-N87 cells = assay: CellTiter-Glo cell viability, NCI-N87; format: cell-based; conditions: 72 h; for GI50: read-out: Absolute GI50; for IC50: read-out: Absolute IC50
Experimental: as §1, §2, §3, §4, §5, §6, §7, §8

[1] = Brain permeability (brain:plasma ratio); format: in vivo; conditions: read-out: Brain:Plasma (B:P) Average
Experimental: Brain permeability can be measured by various methods known in the art. For example, brain permeability can be measured by calculating the ratio between the concentration of a compound of the application in the brain and the concentration of the compound in the plasma (i.e., BP ratio). In one aspect, a compound of the application has a B:P ratio of at least 1.0, 1.1, 1.2, 1.3, 1.4, 1.5, 1.6, 1.7, 1.8, 1.9, or 2.0 at 1 hour after administration of the compound to a subject. In one aspect, a compound of the application has a B:P ratio of at least 1.5, 1.6, 1.7, 1.8, 1.9, or 2.0 at 1 hour after administration of the compound to a subject. In one aspect, a compound of the application has a B:P ratio of at least 1.4, 1.5, 1.6, 1.7, 1.8, 1.9, 2.0, 2.1, 2.2, or 2.3 at 2 hours after administration of the compound to a subject. In one aspect, a compound of the application has a B:P ratio of at least 1.9, 2.0, 2.1, 2.2, or 2.3 at 2 hours after administration of the compound to a subject. In one aspect, a compound of the application has a B:P ratio of at least 1.7, 1.8, 1.9, 2.0, 2.1, 2.2, 2.3, 2.4, or 2.5 at 4 hours after administration of the compound to a subject. In one aspect, a compound of the application has a B:P ratio of at least 2.2, 2.3, 2.4, or 2.5 at 4 hours after administration of the compound to a subject.

[2] = top conc. 10 μM Compound 121, 100 μM cisplatin
[3] = Homo sapiens, top conc. 10 μM Compound 121, 100 μM cisplatin

## N.N.[Cl][Pt][Cl] [Cisplatin, reference compound]
KARPAS-299 cells
  GI50: 1490 nM
  IC50: 1630 nM
KARPAS-299 cells; [2]
  % inhibition at top conc.: 99.99%
A2058 cells
  GI50: 2380 nM
  IC50: 3110 nM
A2058 cells; [2]
  % inhibition at top conc.: 99.85%
22Rv1 cells
  GI50: 1880 nM
  IC50: 3070 nM
22Rv1 cells; [2]
  % inhibition at top conc.: 98.28%
HT-1376 cells
  GI50: 2640 nM
  IC50: 3260 nM
HT-1376 cells; [2]
  % inhibition at top conc.: 91.76%
Raji cells
  GI50: 1740 nM
  IC50: 1970 nM
Raji cells; [2]
  % inhibition at top conc.: 94.98%
TJ905 cells
  GI50: 6560 nM
  IC50: 9850 nM
TJ905 cells; [2]
  % inhibition at top conc.: 80.57%
Molt-4 cells
  GI50: 610 nM
  IC50: 710 nM
Molt-4 cells; [2]
  % inhibition at top conc.: 99.96%
NCI-N87 cells
  GI50: 880 nM
  IC50: 2260 nM
NCI-N87 cells; [2]
  % inhibition at top conc.: 90.08%

## Cc1cc(N2CCOC[C@@H]2C)ccc1-c1ccc(CC(=O)NCc2ccc(F)cc2)nc1 [Compound 121]
KARPAS-299 cells; Homo sapiens
  GI50: 6 nM
  IC50: 6 nM
KARPAS-299 cells; [3]
  inhibition at 10 µM: 99.4%
[1]; time point 0.25 h
  Kp at 0.25 h: 1.08
[1]; time point 0.5 h
  Kp at 0.5 h: 1.37
[1]; time point 1 h
  Kp at 1 h: 1.53
[1]; time point 2 h
  Kp at 2 h: 1.93
[1]; time point 4 h
  Kp at 4 h: 2.29
[1]; time point 6 h
  Kp at 6 h: 1.66
[1]; time point 8 h
  Kp at 8 h: 1.24
A2058 cells; Homo sapiens
  GI50: 8 nM
  IC50: 8 nM
A2058 cells; [3]
  inhibition at 10 µM: 98.1%
22Rv1 cells; Homo sapiens
  GI50: 5 nM
  IC50: 6 nM
22Rv1 cells; [3]
  inhibition at 10 µM: 89%
HT-1376 cells; Homo sapiens
  GI50: 6 nM
  IC50: 9 nM
HT-1376 cells; [3]
  inhibition at 10 µM: 53%
Raji cells; Homo sapiens
  GI50: 5 nM
  IC50: 5 nM
Raji cells; [3]
  inhibition at 10 µM: 94.2%
TJ905 cells
  GI50: 4 nM
  IC50: 4 nM
TJ905 cells; [2]
  inhibition at 10 µM: 70%
Molt-4 cells; Homo sapiens
  GI50: 13 nM
  IC50: 14 nM
Molt-4 cells; [3]
  inhibition at 10 µM: 99.6%
NCI-N87 cells; Homo sapiens
  GI50: 4 nM
  IC50: 4 nM
NCI-N87 cells; [3]
  inhibition at 10 µM: 49.6%
